Where “and” joins values, the source holds several entries; their conditions need not be identical. Identical values can stand only once. Marks after values point to notes of the source that are not given here.
Tests used:
Assay type in all cases: in vivo, Sprague Dawley rats
[1] = tested on: rats on 60% fructose diet; test: Biochemical measurements of serum and urine in fructose-fed rats; conditions: for serum uric acid (change in words): FIG. 2A; for serum uric acid (change in words) / serum triglycerides (change in words): weeks 4, 14, 20; for serum triglycerides (change in words): FIG. 2D
Description: (§1) Male Sprague Dawley rats (150-200 g, Charles River Inc., Wilmington, Mass.) were placed on a standard natural ingredient diet (catalog #7912, Harlan, Wis.) for a five day run-in period with collection of basal blood and urine. Rats were then divided into 5 groups with similar body weight and baseline blood chemistry (n=8 each group).
(§2) Group 3 (F+HCTZ): 60% fructose diet plus hydrochlorothiazide (HCTZ, Sigma-Aldrich, St. Louis, Mo.) 10 mg/kg/day dissolved in drinking water
(§3) We monitored serum K^+ and increased the concentration of KCL at week 5 (1.5% KCL), week 15 (1.75% KCL) and week 17 (2% KCL) to maintain normal k^+ level in serum through the whole study.
(§4) Group 5 (F+HCTZ+Allopurinol): 60% fructose diet plus the same dose of HCTZ and allopurinol 150 mg/L dissolved in drinking water
(§5) Rats were weighed weekly and housed separately in metabolic cages for overnight collection of urine (over 18 hrs) with free access to water and no food on weeks 4, 14 and 20. Four hour fasting serum was also collected from the tail vein within the same week of urine collection. At the end of week 20, rats were sacrificed.
Serum and urine K^+ concentrations were determined with the atomic absorption spectrophotometer (Perkin-Elmer 306). Routine chemistries (including serum glucose, cholesterol, triglycerides, blood urea nitrogen (BUN), sodium, chloride, bicarbonate (HCO3^−) and magnesium (Mg^++); serum and urine creatinine (Cr), uric acid and urine protein concentration) were measured using an autoanalyzer (VetAce, Alfa Wassermann, Inc., West Caldwell, N.J.).

[2] = tested on: rats on 60% fructose diet; test: Serum insulin and Quantitative Insulin Sensitivity Check Index (QUICKI); conditions: for QUICKI / insulin sensitivity (in words): week 14, FIG. 3
Description: as §1
Fasting serum glucose and insulin were obtained at week 14 and used to calculate the QUICKI value. Serum insulin was determined by using the rat insulin ELISA kit (Crystal Chem, Chicago, Ill.) which can detect serum insulin in the range of 156-10,000 pg/ml and has the 3.5% intra-assay and 6.3% inter-assay precision. QUICKI is a mathematical model based on log-transformed fasting plasma glucose and insulin values by equal 1/(log [glucose]+log [insulin]). QUICKI predicts insulin sensitivity with lower values representing more insulin resistance.

[3] = tested on: rats on 60% fructose diet; test: Insulin tolerance test (ITT); conditions: week 18, 0.75 U/kg insulin i.p., FIG. 4
Description: as §1
At week 18, the ITT was performed on animals fasted for 16 hours by administering 0.75 U/kg recombinant human insulin (Novolin; Novo Nordisk, Princeton, N.J.) via intraperitoneal injection. Blood glucose was determined on tail blood via hand-held blood glucose monitor (OneTouch, Johnson & Johnson) at 5 points; before insulin injection, and at 15, 30, 45 and 60 minutes after insulin injection.

[4] = tested on: rats on 60% fructose diet; test: Tail cuff systolic blood pressure measurement in fructose-fed rats; conditions: for systolic blood pressure (SBP): conscious rats, mean±SD
Description: as §1, §2, §3, §4
Systolic blood pressure (SBP) measurement was performed in conscious rats with the use of a tail-cuff sphygmomanometer (Visitech BP2000, Visitech Systems, Apex, N.C.) at weeks 4 and 16. After three time periods of preconditioning, rats were placed in prewarmed chambers (37° C.) for 10-15 min, the pressure and pulse were measured by an automatic tail-cuff inflater and a built-in transducer. The mean of three stable BP readings was used.

[5] = tested on: rats on 60% fructose diet; test: Measurement of urinary nitric oxide (nitrate/nitrite); conditions: FIG. 5
Source text: as §1, §5
Urine was determined NO by using the nitrate/nitrite colorimetric assay kit (Cayman Chemical Company, MI). The kit measures NO reaction products, total nitrate and nitrite concentrations with a modified two-step Griess reaction.

NS(=O)(=O)c1cc2c(cc1Cl)NCNS2(=O)=O [F+HCTZ, hydrochlorothiazide]
serum uric acid (change in words) [1]: greater hyperuricemia
serum uric acid (change in words) ([1]; listed as Hydrochlorothiazide): more hyperuricemia
serum glucose (change in words) ([1]; FIG. 2B, weeks 14 and 20): hyperglycemia
serum cholesterol (change in words) ([1]; FIG. 2C): numerical higher
serum triglycerides (change in words) [1]: higher in the F+HCTZ group but did not reach statistical significance
serum triglycerides (change in words) ([1]; listed as hydrochlorothiazide): numerical higher
Uric acid clearance ([1]; Table 1, mean±SD): 0.08 ± 0.03 ^& ml/min
Urine protein/Cr ([1]; Table 1, mean±SD): 2.53 ± 2.3
Urine uric acid ([1]; Table 1, mean±SD): 2.93 ± 1.0 ^& mg/day
Cr ([1]; Table 1, serum, week 20, mean±SD): 0.46 ± 0.11 mg/dL
BUN ([1]; rat, in vivo): 26.6 ± 14 *^, & mg/dL
Serum K^+ ([1]; rat, in vivo): 4.0 ± 0.1 *^, &, # mEq/L
Serum Mg^++ ([1]; rat, in vivo): 1.15 ± 0.1*^, & mEq/L
serum HCO3^− ([1]; rat, in vivo): 24.7±1.1 mEq/L
serum K^+ (in words) ([1]; rat, in vivo): significantly lower
serum uric acid ([1]; week 14 (implied by sentence), mean±SD): 2.69 ± 0.47 mg/dL
serum glucose ([1]; week 14, 4 h fasting serum, mean±SD): 176 ± 13.3 mg/dL
serum triglycerides ([1]; week 14, mean±SD): 492 ± 154 mg/dL
serum glucose ([1]; week 20, 4 h fasting serum, mean±SD): 186 ± 21.9 mg/dL and 186 ± 22 mg/dL
serum glucose ([1]; week 20, mean±SD): 186 ± 22 mg/dL
serum triglycerides ([1]; week 20, mean±SD): 489 ± 178 mg/dL
serum uric acid ([1]; week 20, mean±SD): 2.76 ± 0.59 mg/dL
QUICKI / insulin sensitivity (in words) ([2]; listed as HCTZ): significantly lower
QUICKI / insulin sensitivity (in words) ([2]; listed as hydrochlorothiazide): significant lower insulin sensitivity
serum insulin concentration ([2]; week 14, rat insulin ELISA, mean±SD): 3449 ± 1200 pg/mL
blood glucose response to intraperitoneal insulin in ITT (in words) [3]: maintained elevated serum glucose in response to insulin
blood glucose response to intraperitoneal insulin in ITT (in words) ([3]; listed as hydrochlorothiazide): no change of blood glucose
effect on systolic blood pressure (in words) ([4]; FIG. 1, weeks 4 and 16): reduced the systolic blood pressure
systolic blood pressure (SBP) ([4]; week 4, tail cuff): 129±4.6 mmHg
systolic blood pressure (SBP) ([4]; week 16, tail cuff): 136±3.7 mmHg
urine nitrate/nitrite excretion (in words) [5]: even lower nitrite excretion
urine nitrate/nitrite excretion (in words) ([5]; listed as Hydrochlorothiazide): more reduction of urine nitrate and nitrite

Reference: US20130109680A1, “METHODS AND COMPOSITIONS FOR AMELIORATING THIAZIDE INDUCED […]” (University of Florida Research Foundation, Inc., priority 2007, published 2013)
